Measured values: patent US20260034192A1 (University of Saskatchewan, priority 2022, published 2026)
Where “and” joins values, the source holds several entries; their conditions need not be identical. Equal values may be shown once. Square brackets hold non-standard residues; d marks the D form. Peptide text beside a SMILES is read from it. * marks the point of attachment. dPhe(4-NHCONH2) = NC(=O)Nc1ccc(C[C@@H](N)C(=O)O)cc1; Dihydroorotyl(S) = O=C1C[C@@H](C(=O)*)NC(=O)N1; dPhe(4-NH2) = Nc1ccc(C[C@@H](N)C(=O)O)cc1; dPhe(4-Cl) = N[C@H](Cc1ccc(Cl)cc1)C(=O)O; Phe(4-NH2) = Nc1ccc(C[C@H](N)C(=O)O)cc1; d2Nal = N[C@H](Cc1ccc2ccccc2c1)C(=O)O; Lys(iPr) = CC(C)NCCCC[C@H](N)C(=O)O; NMeY = CN[C@@H](Cc1ccc(O)cc1)C(=O)O; d3Pal = N[C@H](Cc1cccnc1)C(=O)O

How the values were obtained:
[1] = molecular target: GnRH receptor on bovine pituitary gonadotrophs (bovine) (UniProt P32236); test: cell-based or functional assay
[2] = tested on: bovine pituitary cells; test: GnRH-induced LH secretion of bovine pituitary cells in vitro (Example 9); format: cell-based; settings: for LH conc in medium: 300 μg cetrorelix, 340 μg Degarelix, 300 ug Abarelix, 130 μg Relugolix
Description: Methods: The heads of mature, non-pregnant cows (n=4) were collected from a local abattoir and the pituitary glands were dissected within 60 minutes of slaughter. Immediately following the dissection, the pituitaries were submerged into ice-cold collection medium. The pituitaries were washed 3 times in collection media and the neurohypophysis was dissected from the adenohypophysis. Using a scalpel, the adenohypophysis (anterior pituitary) was sliced into 1 mm×1 mm pieces and transferred to a 50 mL falcon tube containing DMEM medium with 0.5% BSA. The tissue pieces were washed by manually agitating the tube for 1 minute. The tissue pieces were allowed to settle to the bottom of the tube, then the supernatant was discarded. The macerated pieces were transferred to a 15 mL falcon tube with the dissociation medium and incubated at 37° C. for 60 minutes. Every 10 minutes the tube was vortexed for 1 minute to ensure the tissue was completely dissociated. The dissociation media was inactivated using DMEM with 10% SFB then manually agitating the tube for 1 minute. The dissociated cells were placed in a 40 μm cell strainer to remove the undigested tissue and placed into two 15 mL falcon tubes. The cells were centrifuged at 200×g for 10 minutes and the supernatant was discarded. The cells were washed three times by resuspending in DMEM solution with red blood cell lysing buffer followed by centrifuged at 200×g for 10 minutes. Then the cells were washed with DMEM solution and centrifuged at 200×g for 10 minutes. Following the last centrifugation, the cells were resuspended in DMEM, and the trypan blue test was used to determine the cell count and assess viability. DMEM with 10% fetal bovine serum (FBS) was treated with 10% charcoal-dextran and passed through a 0.2 μm filter. The cells were then plated in a 24-well tissue culture plate with a concentration of 1×10^6 viable cells per well and incubated at 37° C. for 24 hours. The following day, to starve the cells, the culture media was replaced with DMEM without FBS and left to incubate for another 24 hours.
Treatments: Based on the results from the pilot study, the selected concentration for Cetrorelix (cetrorelix acetate) was 300 μg. The cetrorelix was dissolved in trace levels of DMSO then dissolved in ultrapure water. To standardize the treatments, the nanomole concentration of each GnRH antagonist were matched with the cetrorelix nanomole concentration. The final concentration used for further experiments were: 300 μg for cetrorelix, 340 μg for Degarelix (Degarelix acetate), 300 ug for Abarelix (Abarelix acetate). Both degarelix and abarelix were dissolved ultrapure water. The equivalent Relugolix nanomole concentration was 130 μg which was dissolved in methanol. Treatment cells were preincubated for 60 minutes with either Cetrorelix, Degarelix, Relugolix or Abarelix. Following the preincubation, the cells were incubated for 30 minutes with either 1 nM or 10 nM of GnRH (Gonadorelin, Fertagyl, Merck Animal Health). GnRH doses were based on pituitary study by Paolicchi et al. 1999). The media were collected and centrifuged at 200×g for 10 minutes to remove the cells. Positive (Control) group was only treated with 1 nM and 10 nM of GnRH to determine the maximum LH secretion. LH concentrations in the culture medium was measured by a commercial bovine specific ELISA kit and reported as mIU/ml of medium.

[3] = tested on: GnRH-induced plasma LH levels and ovulation; test: GnRH challenge in heifers pre-treated with GnRH antagonists: plasma LH and ovulation (Example 10); format: in vivo, cattle; settings: for Plasma LH response to GnRH challenge: heifers pre-treated with antagonist 60 minutes before GnRH injection; for Ovulation (Yes/No) within 48 hr of GnRH treatment / Plasma LH concentration at 60 minute, group Mean / Plasma LH concentration at 120 minute, group Mean / Plasma LH concentration at −60 minute, group Mean / Plasma LH concentration at 0 minute, group Mean: heifers; for Ovulation (Yes/No) within 48 hr of GnRH treatment / Dominant follicle diameter (mm) 48 hr after GnRH Injection / Dominant follicle diameter (mm) at GnRH injection: 3 mg antagonist 60 min before GnRH; for Plasma LH concentration at 60 minute, group Mean / Plasma LH concentration at 120 minute, group Mean / Plasma LH concentration at 60 minute / Plasma LH concentration at 120 minute: after GnRH injection; for Plasma LH concentration at −60 minute, group Mean / Plasma LH concentration at −60 minute: time of 3 mg GnRH antagonist injection; for Plasma LH concentration at 0 minute, group Mean / Plasma LH concentration at 0 minute: time of GnRH injection; for Dominant follicle diameter (mm) 48 hr after GnRH Injection / Dominant follicle diameter (mm) at GnRH injection / Plasma LH concentration at 60 minute / Plasma LH concentration at 120 minute / Plasma LH concentration at −60 minute / Plasma LH concentration at 0 minute: individual heifers; for Plasma LH concentration at 60 minute / Plasma LH concentration at 120 minute / Plasma LH concentration at 0 minute: 3 mg antagonist at −60 min; for Plasma LH concentration at −60 minute: 60 mins before GnRH
Description: Methods: Pubertal heifers (n=10) with a functional CL were selected at the Federal University of Santa Maria. Heifers were administered an intramuscular (i/m) injection of prostaglandin F2a analog (PGF; Lutalyse 5 ml or Estrumate 2 ml) to induce CL regression. Heifers were randomly placed into 4 treatment groups at the time of PGF injection: Trt1 (n=2, 3 mg of Abarelix); Trt2 (n=2, 3 mg of Degarelix), Trt3 (n=2, 3 mg of Relugolix) and Trt 4 (n=4; Cetrorelix 3 mg). Heifers were treated with these GnRH antagonists 1.5 days (36 hr) after the PGF injection and the GnRH antagonist treatment time point was defined as −60 mins. Heifers were treated with GnRH ([…] of Fertagyl i/m) at 0 mins to induce ovulation. Jugular venipuncture plasma samples were collected every 60 minutes for 3 hours (from −60 min to 120 minutes, with t=0 min when GnRH is administered). Plasma samples were kept at 4C overnight and LH analysis was performed the next day using a bovine-specific ELISA commercial kit. Transrectal ultrasonography was conducted to the time of GnRH injection (Time 0 hr) and 2 days later (48 hr after GnRH injection) to record the size of dominant follicle and to detect ovulation after treatment.

[4] = tested on: dominant follicle; settings: acyline-treated animals, multiple injections from just before ovulation; cited from earlier work
[5] = challenged with 1 nM GnRH 30 minutes after 60 minutes preincubation
[6] = challenged with 10 nM GnRH 30 minutes after 60 minutes preincubation

Sequence of UniProt P32236 (P32236 whole entry): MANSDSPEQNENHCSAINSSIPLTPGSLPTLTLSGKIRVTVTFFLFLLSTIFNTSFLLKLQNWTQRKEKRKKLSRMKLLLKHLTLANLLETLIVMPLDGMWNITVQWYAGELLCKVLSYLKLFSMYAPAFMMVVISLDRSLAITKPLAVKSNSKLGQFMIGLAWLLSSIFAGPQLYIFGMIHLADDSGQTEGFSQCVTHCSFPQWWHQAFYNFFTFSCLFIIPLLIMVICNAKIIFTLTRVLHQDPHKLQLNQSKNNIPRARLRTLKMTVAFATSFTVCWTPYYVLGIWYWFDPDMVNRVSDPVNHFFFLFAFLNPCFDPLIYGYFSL

LH conc (mIU/mL) in medium from bovine pituitary cells in vitro, preincubated 60 min with the antagonist, then challenged 30 min with 1 nM GnRH (control without antagonist: 2.01) [1]	LH conc (mIU/mL) in medium from bovine pituitary cells in vitro, preincubated 60 min with the antagonist, then challenged 30 min with 10 nM GnRH (control without antagonist: 2.49) [1]	Compound	LH conc in medium [2, 5]	LH conc in medium [2, 6]	Plasma LH response to GnRH challenge [3]	Ovulation (Yes/No) within 48 hr of GnRH treatment [3]	Plasma LH concentration at 60 minute, group Mean [3]	Plasma LH concentration at 120 minute, group Mean [3]	Plasma LH concentration at −60 minute, group Mean [3]	Plasma LH concentration at 0 minute, group Mean [3]	Dominant follicle diameter (mm) 48 hr after GnRH Injection [3]	Dominant follicle diameter (mm) at GnRH injection [3]	Plasma LH concentration at 60 minute [3]	Plasma LH concentration at 120 minute [3]	Plasma LH concentration at −60 minute [3]	Plasma LH concentration at 0 minute [3]	also measured
2.21 mIU/mL	2.15 mIU/mL	Abarelix (Abarelix acetate) (peptide)															
		CC(=O)N[C@H](Cc1ccc2ccccc2c1)C(=O)N[C@H](Cc1ccc(Cl)cc1)C(=O)N[C@H](Cc1cccnc1)C(=O)N[C@@H](CO)C(=O)N[C@@H](Cc1ccc(NC(=O)[C@@H]2CC(=O)NC(=O)N2)cc1)C(=O)N[C@H](Cc1ccc(NC(N)=O)cc1)C(=O)N[C@@H](CC(C)C)C(=O)N[C@@H](CCCCNC(C)C)C(=O)N1CCC[C@H]1C(=O)N[C@H](C)C(N)=O [Degarelix, N-acetyl-3-(2-naphthyl)-D-alanyl-4-chloro-D-phenylalanyl-3-(3-pyridyl)-D-alanyl-L-seryl-4-((S)-dihydroorotamido)-L-phenylalanyl-4-ureido-D-phenylalanyl-L-leucyl-N6-isopropyl-L-lysyl-L-prolyl-D-alaninamide] (Ac-[d2Nal][dPhe(4-Cl)][d3Pal]S[Phe(4-NH2)](Dihydroorotyl(S))[dPhe(4-NHCONH2)]L[Lys(iPr)]P[dA]-NH2)	1.33 mIU/mL	1.21 mIU/mL	did not register an increase in LH	No	8.60 mIU/ml	8.62 mIU/ml	8.14 mIU/ml	8.89 mIU/ml	12 mm and 13.2 mm	14 mm and 15.1 mm	4.87 mIU/ml and 12.32 mIU/ml	5.25 mIU/ml and 11.98 mIU/ml	5.54 mIU/ml and 10.74 mIU/ml	5.37 mIU/ml and 12.41 mIU/ml	Plasma LH response to GnRH challenge ([3]; listed as degarelix): block the GnRH-induced LH release; Ovulation (Yes/No) within 48 hr of GnRH treatment ([3]; listed as degarelix): prevent GnRH-induced ovulations
1.33 mIU/mL	1.21 mIU/mL	Degarelix (Degarelix acetate) (peptide)															
		CONC(=O)Nc1ccc(-c2sc3c(c2CN(C)C)c(=O)n(-c2ccc(OC)nn2)c(=O)n3Cc2c(F)cccc2F)cc1 [Relugolix, 1-[4-[1-[(2,6-difluorophenyl)methyl]-5-[(dimethylamino)methyl]-3-(6-methoxypyridazin-3-yl)-2,4-dioxothieno[2,3-d]pyrimidin-6-yl]phenyl]-3-methoxyurea]	1.72 mIU/mL	1.47 mIU/mL	did not register an increase in LH	No	13.94 mIU/ml	6.97 mIU/ml	18.48 mIU/ml	19.92 mIU/ml	10 mm	9.8 mm and 12.1 mm	22.66 mIU/ml and 5.22 mIU/ml	9.71 mIU/ml and 4.23 mIU/ml	30.96 mIU/ml and 5.99 mIU/ml	33.09 mIU/ml and 6.75 mIU/ml	Plasma LH response to GnRH challenge ([3]; listed as relugolix): block the GnRH-induced LH release; Ovulation (Yes/No) within 48 hr of GnRH treatment ([3]; listed as relugolix): prevent GnRH-induced ovulations
		CC(=O)N[C@H](Cc1ccc2ccccc2c1)C(=O)N[C@H](Cc1ccc(Cl)cc1)C(=O)N[C@H](Cc1cccnc1)C(=O)N[C@@H](CO)C(=O)N(C)[C@@H](Cc1ccc(O)cc1)C(=O)N[C@H](CC(N)=O)C(=O)N[C@@H](CC(C)C)C(=O)N[C@@H](CCCCNC(C)C)C(=O)N1CCC[C@H]1C(=O)N[C@H](C)C(N)=O [Abarelix, N-acetyl-3-(2-naphthyl)-D-alanyl-4-chloro-D-phenylalanyl-3-(3-pyridyl)-D-alanyl-L-seryl-N-methyl-L-tyrosyl-D-asparagyl-L-leucyl-N6-isopropyl-L-lysyl-L-prolyl-D-alaninamide] (Ac-[d2Nal][dPhe(4-Cl)][d3Pal]S[NMeY][dN]L[Lys(iPr)]P[dA]-NH2)	2.21 mIU/mL	2.15 mIU/mL	did not register an increase in LH	No	10.49 mIU/ml	11.23 mIU/ml	9.43 mIU/ml	11.26 mIU/ml	14 mm and 12 mm	14.4 mm and 13.6 mm	8.96 mIU/ml and 12.02 mIU/ml	9.32 mIU/ml and 13.14 mIU/ml	8.65 mIU/ml and 10.21 mIU/ml	8.98 mIU/ml and 13.54 mIU/ml	Effect on LH suppression ([2]; 1 nM GnRH challenge): no effect; Effect on LH concentration ([2]; 10 nM challenge): modest decrease; Plasma LH response to GnRH challenge ([3]; listed as abarelix): block the GnRH-induced LH release; Ovulation (Yes/No) within 48 hr of GnRH treatment ([3]; listed as abarelix): prevent GnRH-induced ovulations
		CC(=O)Nc1ccc(C[C@H](NC(=O)[C@H](CO)NC(=O)[C@@H](Cc2cccnc2)NC(=O)[C@@H](Cc2ccc(Cl)cc2)NC(=O)[C@@H](Cc2ccc3ccccc3c2)NC(C)=O)C(=O)N[C@H](Cc2ccc(NC(C)=O)cc2)C(=O)N[C@@H](CC(C)C)C(=O)N[C@@H](CCCCNC(C)C)C(=O)N2CCC[C@H]2C(=O)N[C@H](C)C(N)=O)cc1 [acyline, N-acetyl-3-(2-naphthyl)-D-alanyl-4-chloro-D-phenylalanyl-3-(3-pyridyl)-D-alanyl-L-seryl-4-acetamido-L-phenylalanyl-4-acetamido-D-phenylalanyl-L-leucyl-N6-isopropyl-L-lysyl-L-prolyl-D-alaninamide] (Ac-[d2Nal][dPhe(4-Cl)][d3Pal]S[Phe(4-NH2)](Ac)[dPhe(4-NH2)](Ac)L[Lys(iPr)]P[dA]-NH2)															Maximum diameter of dominant follicle [4]: 7.7 mm
